Earlier results, collected in patent US20120028943A1, “Medicinal Cream Made Using Fluticasone Propionate And Chitosan And A Process To Make The Same” (APEX LABORATORIES PRIVATE LIMITED, priority 2009, published 2012).

Experiments:
human plasma proteins = conditions: averaged
[1] = target: T1, human glucocorticoid receptors (Homo sapiens, UniProt P04150)
T1 sequence (P04150 1-777): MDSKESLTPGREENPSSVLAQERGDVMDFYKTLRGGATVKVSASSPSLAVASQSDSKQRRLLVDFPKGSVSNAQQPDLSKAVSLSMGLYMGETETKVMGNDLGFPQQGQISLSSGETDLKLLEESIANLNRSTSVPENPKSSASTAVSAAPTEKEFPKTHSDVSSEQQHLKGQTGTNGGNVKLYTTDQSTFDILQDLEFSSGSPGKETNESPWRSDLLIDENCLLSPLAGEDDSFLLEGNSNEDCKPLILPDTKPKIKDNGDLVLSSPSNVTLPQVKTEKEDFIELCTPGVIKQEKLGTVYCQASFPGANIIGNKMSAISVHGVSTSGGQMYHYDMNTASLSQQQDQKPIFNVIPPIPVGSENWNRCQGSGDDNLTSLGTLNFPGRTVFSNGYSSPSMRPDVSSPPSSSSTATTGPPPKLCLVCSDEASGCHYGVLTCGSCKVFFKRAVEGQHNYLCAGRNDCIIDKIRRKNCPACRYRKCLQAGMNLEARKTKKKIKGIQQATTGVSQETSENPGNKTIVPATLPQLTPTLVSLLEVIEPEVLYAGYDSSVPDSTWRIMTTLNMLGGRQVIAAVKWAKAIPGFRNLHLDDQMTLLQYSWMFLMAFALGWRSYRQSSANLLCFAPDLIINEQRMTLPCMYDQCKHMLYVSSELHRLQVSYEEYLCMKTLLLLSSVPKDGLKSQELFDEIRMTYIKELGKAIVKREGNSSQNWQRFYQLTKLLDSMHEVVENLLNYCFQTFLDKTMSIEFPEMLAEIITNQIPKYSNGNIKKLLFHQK

[2] = test system: HPA (hypothalamic-pituitary-adrenal)-axis; conditions: after dermal administration
[3] = target: T1, human glucocorticoid receptors; conditions: in vitro
[4] = not given; remark: listed apart in the source
cytochrome P450 3A4 = cytochrome P450 3A4 (Homo sapiens, UniProt P08684); conditions: liver
Sequence of cytochrome P450 3A4 (P08684 whole entry): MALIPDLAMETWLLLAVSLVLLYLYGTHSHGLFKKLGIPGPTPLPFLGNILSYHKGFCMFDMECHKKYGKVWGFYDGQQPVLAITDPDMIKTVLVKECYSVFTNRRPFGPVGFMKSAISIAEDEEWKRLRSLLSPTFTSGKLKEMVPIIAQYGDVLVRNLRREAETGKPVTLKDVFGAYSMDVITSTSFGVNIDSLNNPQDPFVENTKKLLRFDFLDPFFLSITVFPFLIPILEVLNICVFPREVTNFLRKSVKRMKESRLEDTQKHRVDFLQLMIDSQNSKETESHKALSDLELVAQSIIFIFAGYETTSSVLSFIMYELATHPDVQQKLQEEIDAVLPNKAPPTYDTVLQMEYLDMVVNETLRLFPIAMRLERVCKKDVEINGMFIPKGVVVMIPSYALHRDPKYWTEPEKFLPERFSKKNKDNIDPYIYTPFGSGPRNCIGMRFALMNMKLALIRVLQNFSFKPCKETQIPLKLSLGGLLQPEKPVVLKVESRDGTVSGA

human transcortin = target: T2, human transcortin (Homo sapiens, UniProt P08185)
T2 sequence (P08185 23-405): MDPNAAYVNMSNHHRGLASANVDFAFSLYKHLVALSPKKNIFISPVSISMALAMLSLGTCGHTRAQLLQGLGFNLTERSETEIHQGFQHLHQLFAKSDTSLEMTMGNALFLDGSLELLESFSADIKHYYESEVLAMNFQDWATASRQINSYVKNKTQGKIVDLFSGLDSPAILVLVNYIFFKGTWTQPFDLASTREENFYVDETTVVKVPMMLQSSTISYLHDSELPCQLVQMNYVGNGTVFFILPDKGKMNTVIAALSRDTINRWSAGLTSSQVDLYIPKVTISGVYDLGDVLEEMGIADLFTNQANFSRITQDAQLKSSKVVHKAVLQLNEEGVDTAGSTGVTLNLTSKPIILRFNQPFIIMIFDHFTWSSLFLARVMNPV

percentage bound to human plasma proteins (human plasma proteins): 91%
binding to erythrocytes (erythrocytes): weakly and reversibly bound
selectivity to the glucocorticoid receptor [1]: high degree of selectivity
affinity for human glucocorticoid receptors ([1]; in vitro): strong affinity
HPA-axis suppressive activity [2]: low
agonist activity at human glucocorticoid receptors [3]: agonist activity
solubility in 95% ethanol (95% ethanol): slightly soluble
solubility in dimethyl sulfoxide (dimethyl sulfoxide): freely soluble
solubility in dimethylformamide (dimethylformamide): freely soluble
solubility in methanol (methanol): slightly soluble
solubility in water (water): practically insoluble
binding to human transcortin (human transcortin): not significantly hound
SMILES: CCC(=O)O[C@]1(C(=O)SCF)[C@H](C)C[C@H]2[C@@H]3C[C@H](F)C4=CC(=O)C=C[C@]4(C)[C@@]3(F)[C@@H](O)C[C@@]21C [Fluticasone propionate, S-(fluoromethyl)6α,9-difluoro-11β-17-dihydroxy-16α-methyl-3-oxoandrosta-1,4-diene-17β-carbothioate, 17-propionate]
topical anti-inflammatory potency [4]: high
metabolism (cytochrome P450 3A4): metabolized in the liver by cytochrome P450 3A4-mediated hydrolysis
